The values below come from patent EP1529535A1, “Isolation of a circulating human lipolytic peptide” (IPF PharmaCeuticals GmbH, priority 2003, dated 2005).

pEC50: −log10 of the molar value.

The assay concerns 3T3L1-derived differentiated mouse adipocytes. The assay is classed as cell-based. The method, then: According to the invention 3T3L1-derived differentiated mouse adipocytes can be used as appropriate cell-system. These cells are treated with fractions of human hemofiltrate and identified using a glycerol-estimation method (GPO-Trinder reagent, Sigma, Deisenhofen, Germany) lipolytic activity. […] It was subsequently isolated in several chromatographic steps using reverse-phase and cation-exchange chromatographic material. 3T3L1 cells were obtained from ATCC. They were grown in DMEM with 10% FCS, penicillin, streptomycin, and L-glutamine for proliferation. For differentiation into the mature adipocyte phenotype, the cells were plated onto 96 well plates (Costar) and treated for three days with differentiation medium (DMEM with 10% FCS, dexamethasone, insulin, L-glutamine and 8-Br-cAMP) and subsequently for three to six days with sustainment medium (DMEM with 10% FCS and L-glutamine). Cells differentiated as described above were then treated for five hours with the hemofiltrate fractions diluted in serum-free medium. An aliquot of the cell supernatant was mixed with the glycerol-estimation-solution (GPO-Trinder Reagent, Sigma, Garching, Germany) and incubated for 15 minutes. Then the absorbance was measured at 540 nm in a 96 well plate ELISA reader (Dynex). […] The colored product is measured at 540 nm in a spectrophotometer. […]

As for `CSCC[C@H](NC(=O)[C@H](CCCNC(=N)N)NC(=O)[C@H](Cc1ccc(O)cc1)NC(=O)[C@@H]1CCCN1C(=O)CNC(=O)[C@H](CCC(=O)O)NC(=O)[C@H](CC(=O)O)NC(=O)[C@H](CCCCN)NC(=O)[C@H](CCCCN)NC(=O)[C@H](CCC(=O)O)NC(=O)[C@H](C)NC(=O)[C@H](C)NC(=O)[C@@H](N)C(C)C)C(=O)N[C@@H](CCC(=O)O)C(=O)N[C@@H](Cc1c[nH]cn1)C(=O)N[C@@H](Cc1ccccc1)C(=O)N[C@@H](CCCNC(=N)N)C(=O)N[C@@H](Cc1c[nH]c2ccccc12)C(=O)NCC(=O)N[C@@H](CO)C(=O)N1CCC[C@H]1C(=O)N1CCC[C@H]1C(=O)N[C@@H](CCCCN)C(=O)N[C@@H](CC(=O)O)C(=O)O` [vaaekkdegp yrmehfrwgs ppkd], the pEC50 is around 7.70.

On to `CSCC[C@H](NC(=O)[C@H](CCCNC(=N)N)NC(=O)[C@H](Cc1ccc(O)cc1)NC(=O)[C@@H]1CCCN1C(=O)CNC(=O)[C@H](CCC(=O)O)NC(=O)[C@H](CC(=O)O)NC(=O)[C@H](CCCCN)NC(=O)[C@H](CCCCN)NC(=O)[C@H](CCC(=O)O)NC(=O)[C@H](C)N)C(=O)N[C@@H](CCC(=O)O)C(=O)N[C@@H](Cc1c[nH]cn1)C(=O)N[C@@H](Cc1ccccc1)C(=O)N[C@@H](CCCNC(=N)N)C(=O)N[C@@H](Cc1c[nH]c2ccccc12)C(=O)NCC(=O)N[C@@H](CO)C(=O)N1CCC[C@H]1C(=O)N1CCC[C@H]1C(=O)N[C@@H](CCCCN)C(=O)N[C@@H](CC(=O)O)C(=O)O` [β-MSH, aekkdegp yrmehfrwgs ppkd], for which the pEC50 is around 7.70.

The term pEC50 denotes the EC50 on a negative log10 scale, so that one unit is a factor of ten. A higher pEC50 goes with a low EC50.
